Source: patent publication US20040198810A1 (H. Lundbeck A/S, priority 2001, published 2004)

Key:
Assay type in all cases: in vivo
[1] = system: Chronic Mild Stress model; test: Chronic Mild Stress model; details: animal models
Excerpt: (§1) This has i.a. been found in the Chronic Mild Stress model (Willner P., Psychopharmachology 1997, 134, 319-329).

[2] = system: primary care patients with major depression disorder; test: 8-week, double-blind, randomised, placebo-controlled, flexible-dose clinical study; details: Week 1 (p=0.023) to Week 4 (p=0.002), observed cases
Excerpt: as §1
A total of 471 patients were randomised into the study. The all-patient-treated set comprised 469 patients and the full-analysis set comprised 468 patients.
There was an approximately 3 to 1 ratio of women to men in each treatment group, and almost all patients were Caucasian. The mean age was 43 years (SD 11). At baseline, the mean MADRS total score was approximately 29 for the treatment group, which signifies moderate to severely ill patients.

[3] = fixed dose studies (MADRS rating scale and Clinical Global Impression); details: escitalopram in a dose of 10 mg

Compound: CN(C)CCC[C@@]1(c2ccc(F)cc2)OCc2cc(C#N)ccc21 [escitalopram, (S)-1-[3-(dimethylamino)propyl]-1-(4-fluorophenyl)-1,3-dihydro-5-isobenzofurancarbonitrile]
- speed of response [1]: faster response than citalopram-racemate
- therapeutic effect versus placebo, adjusted mean change in MADRS total score [2]: significantly superior therapeutic effect
- effect as determined by the MADRS rating scale and Clinical Global Impression (severity as well as improvement) [3]: at least same effect as citalopram in a dose of 40 mg
